Reference: patent US20250257041A1, “INDUCERS OF INTEGRATED STRESS RESPONSE TO TREAT CANCER” (The Board of Regents of The University of Texas System, priority 2022, published 2025)
Like-named read-outs stand apart in the source and are kept apart here.

Key:
HCT116 GCN2KO = test: Proliferation of HCT116 cells with GCN2 knocked out (CRISPR), Cell TiterGlo; type: cell-based, human; conditions: Homo sapiens
Protocol: Briefly, compounds were tested for their effect on proliferation of HCT116 colorectal cell lines using Cell TiterGlo (Promega). Each compound was tested in a 10-point dose response experiment in triplicate. Multiple values in the column titled HCT116 WT reflect separate independent experiments. The three columns titled “HCT116 WT (repeat)”, “HCT116-CGN2KO” and “HCT116 WT+ISRIB” provide data for selected compounds that were tested simultaneously under three conditions. The HCT116 WT column lists IC50 against the wild type HCT116 colorectal cancer cell line. The HCT116-CGN2KO lists IC50 data for cells in which one component of the integrated stress response, GCN2, has been knocked out using CRISPR technology.

HCT116 WT = test: Proliferation of HCT116 colorectal cell line, Cell TiterGlo; type: cell-based, human
Procedure, shortened: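 Cell viability by CellTiter-Glo in parental HCT116, in a GCN2-knockout line, and in parental cells co-treated with ISRIB. IC50 from triplicate 10-point titrations; repeated values come from separate runs.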

[1] = HCT-116, HCT116 cells with GCN2 knocked out using CRISPR, read-out: HCT116 IC50 (uM) HCT116 − GCN2KO
[2] = Homo sapiens, HCT-116, wild type HCT116, 10-point dose response in triplicate, multiple values = separate independent experiments, read-out: HCT116 IC50 (uM) HCT116 WT
[3] = Homo sapiens, HCT-116, wild type HCT116, tested simultaneously with GCN2KO and +ISRIB, read-out: HCT116 IC50 (uM) HCT116 WT (repeat)
[4] = wild type HCT116, compound plus 10 nM of ISRIB, read-out: HCT116 IC50 (uM) HCT116 WT + ISRIB

SMILES	IC50 (HCT116 GCN2KO; [1]) [µM]	IC50 (HCT116 WT; [2]) [µM]	IC50 (HCT116 WT; [3]) [µM]	IC50 (HCT116 WT; [4]) [µM]	HCT116 IC50 (uM) HCT116 WT (HCT116 WT; wild type HCT116, 10-point dose response in triplicate, multiple values = separate independent experiments)	IC50 (HCT116 GCN2KO; HCT-116, read-out: HCT116 IC50 (uM) HCT116 − GCN2KO) [µM]	IC50 (HCT116 WT; Homo sapiens, HCT-116, read-out: HCT116 IC50 (uM) HCT116 WT) [µM]	IC50 (HCT116 WT; Homo sapiens, HCT-116, read-out: HCT116 IC50 (uM) HCT116 WT (repeat)) [µM]	IC50 (HCT116 WT; read-out: HCT116 IC50 (uM) HCT116 WT + ISRIB, wild type HCT116, compound plus 10 nM of ISRIB) [µM]
Cn1nc(-c2ccc(NC(=O)c3ccccc3Cl)cc2)cc1NC(=O)c1ccc(C2(C(F)(F)F)N=N2)cc1 [SW393142, 2-Chloro-N-(4-(1-methyl-5-(4-(3-(trifluoromethyl)-3H-diazirin-3-yl)benzamido)-1H-pyrazol-3-yl)phenyl)benzamide]	–	–	–	–	–	3.22	3.6	1.59	3.41
Cn1nc(-c2ccc(NC(=O)c3ccc(C(=O)c4ccccc4)cc3)cc2)cc1NC(=O)c1ccccc1 [SW389002, N-(4-(5-Benzamido-1-methyl-1H-pyrazol-3-yl)phenyl)-4-benzoylbenzamide]	31.9	7.1	26.4	46.3	–	–	–	–	–
COc1ccccc1C(=O)Nc1ccc(-c2cc(NC(=O)c3ccccc3)n(C)n2)cc1 [SW389001, N-(4-(5-Benzamido-1-methyl-1H-pyrazol-3-yl)phenyl)-2-methoxybenzamide]	6.44	0.31	0.84	7	–	–	–	–	–
Cn1nc(-c2ccc(NC(=O)c3cccc(C#N)c3)cc2)cc1NC(=O)c1ccccc1 [SW393069, N-(4-(5-benzamido-1-methyl-1H-pyrazol-3-yl)phenyl)-3-cyanobenzamide]	15.2	17	7.43	12.7	–	–	–	–	–
C#CCOc1ccc(C(=O)c2ccc(C(=O)Nc3cc(-c4ccc(NC(=O)c5ccccc5)cc4)nn3C)cc2)cc1 [SW389012, N-(3-(4-Benzamidophenyl)-1-methyl-1H-pyrazol-5-yl)-4-(4-(prop-2-yn-1-yloxy)benzoyl)benzamide]	19.2	> 50	7.01	–	–	–	–	–	–
Cn1nc(-c2ccc(NC(=O)c3ccccc3Cl)cc2)cc1NC(=O)c1cccc(C2(C(F)(F)F)N=N2)c1 [SW393172, 2-Chloro-N-(4-(1-methyl-5-(3-(3-(trifluoromethyl)-3H-diazirin-3-yl)benzamido)-1H-pyrazol-3-yl)phenyl)benzamide]	4.37	3.6	5.08	5.25	–	–	–	–	–
Cn1nc(-c2ccc(NC(=O)c3ccc(C#N)cc3)cc2)cc1NC(=O)c1ccccc1 [SW393061, N-(4-(5-benzamido-1-methyl-1H-pyrazol-3-yl)phenyl)-4-cyanobenzamide]	≥ 50	–	≥ 50	–	inactive	–	–	–	–
Cn1nc(-c2ccc(NC(=O)c3ccccc3)cc2)cc1NC(=O)c1cccc(Cl)c1 [SW389161, N-(3-(4-benzamidophenyl)-1-methyl-1H-pyrazol-5-yl)-3-chlorobenzamide]	11.7	1.27	1.06	8.26	–	–	–	–	–
Cn1nc(-c2ccc(NC(=O)c3ccccc3)cc2)cc1NC(=O)c1ccc(Cl)cc1 [SW393132, N-(3-(4-benzamidophenyl)-1-methyl-1H-pyrazol-5-yl)-4-chlorobenzamide]	≥ 50	> 50	≥ 50	–	–	–	–	–	–
C#CCOc1cccc(C(=O)Nc2ccc(-c3cc(NC(=O)c4ccc(N=[N+]=[N-])cc4)n(C)n3)cc2)c1 [SW393065, N-(4-(5-(4-Azidobenzamido)-1-methyl-1H-pyrazol-3-yl)phenyl)-3-(prop-2-yn-1-yloxy)benza-mide]	3.23	3	3.73	3.26	–	–	–	–	–
Cn1nc(-c2ccc(NC(=O)c3cccc(C(=O)c4ccccc4)c3)cc2)cc1NC(=O)c1ccccc1 [SW389004, N-(4-(5-Benzamido-1-methyl-1H-pyrazol-3-yl)phenyl)-3-benzoylbenzamide]	7.75	5.7	7.47	7.22	–	–	–	–	–
C#Cc1cccc(C(=O)Nc2ccc(-c3cc(NC(=O)c4ccccc4)n(C)n3)cc2)c1 [SW389013, N-(4-(5-Benzamido-1-methyl-1H-pyrazol-3-yl)phenyl)-3-ethynylbenzamide]	15.8	2.79	4.21	19.8	–	–	–	–	–
Cn1nc(-c2ccc(NC(=O)c3ccc(Cl)cc3)cc2)cc1NC(=O)c1ccccc1 [SW393072, N-(4-(5-benzamido-1-methyl-1H-pyrazol-3-yl)phenyl)-4-chlorobenzamide]	11.1	3.3	2.83	13.8	–	–	–	–	–
Cn1nc(-c2ccc(NS(=O)(=O)c3ccccc3)cc2)cc1NC(=O)c1ccccc1 [SW393070, N-(1-methyl-3-(4-(phenylsulfonamido)phenyl)-1H-pyrazol-5-yl)benzamide]	22	16	9.06	23.3	–	–	–	–	–
C#CCOc1ccc(C(=O)c2ccc(C(=O)Nc3ccc(-c4cc(NC(=O)c5ccccc5)n(C)n4)cc3)cc2)cc1 [SW389010, N-(4-(5-Benzamido-1-methyl-1H-pyrazol-3-yl)phenyl)-4-(4-(prop-2-yn-1-yloxy)benzoyl)benzamide]	41.1	20	43.1	–	–	–	–	–	–
C#Cc1ccc(C(=O)Nc2ccc(-c3cc(NC(=O)c4ccccc4)n(C)n3)cc2)cc1 [SW389007, N-(4-(5-Benzamido-1-methyl-1H-pyrazol-3-yl)phenyl)-4-ethynylbenzamide]	5.22	2	4.8	4.42	–	–	–	–	–

Continued, in another order:

IC50 (HCT116 GCN2KO; [1]) [µM]	IC50 (HCT116 WT; [2]) [µM]	IC50 (HCT116 WT; [3]) [µM]	IC50 (HCT116 WT; [4]) [µM]	HCT116 IC50 (uM) HCT116 WT (HCT116 WT; wild type HCT116, 10-point dose response in triplicate, multiple values = separate independent experiments)	SMILES	IC50 (HCT116 GCN2KO; HCT-116, read-out: HCT116 IC50 (uM) HCT116 − GCN2KO) [µM]	IC50 (HCT116 WT; Homo sapiens, HCT-116, read-out: HCT116 IC50 (uM) HCT116 WT) [µM]	IC50 (HCT116 WT; Homo sapiens, HCT-116, read-out: HCT116 IC50 (uM) HCT116 WT (repeat)) [µM]	IC50 (HCT116 WT; read-out: HCT116 IC50 (uM) HCT116 WT + ISRIB, wild type HCT116, compound plus 10 nM of ISRIB) [µM]
2.77	0.405	0.21	2.5	–	Cn1nc(-c2ccc(NC(=O)c3ccccc3)cc2)cc1NC(=O)c1cccc(N=[N+]=[N-])c1 [SW389157, 3-Azido-N-(3-(4-benzamidophenyl)-1-methyl-1H-pyrazol-5-yl)benzamide]	–	–	–	–
2.97	0.313	0.33	2.96	–	C#Cc1cccc(C(=O)Nc2cc(-c3ccc(NC(=O)c4ccccc4)cc3)nn2C)c1 [SW389005, N-(3-(4-Benzamidophenyl)-1-methyl-1H-pyrazol-5-yl)-3-ethynylbenzamide]	–	–	–	–
2.95	0.34	1.02	3.23	–	C#CCOc1ccccc1C(=O)Nc1ccc(-c2cc(NC(=O)c3ccccc3)n(C)n2)cc1 [SW393168, N-(4-(5-benzamido-1-methyl-1H-pyrazol-3-yl)phenyl)-2-(prop-2-yn-1-yloxy)benzamide]	–	–	–	–
2.96	0.561	0.39	3.01	–	Cn1nc(-c2ccc(NC(=O)c3ccccc3)cc2)cc1NC(=O)c1cccc(C#N)c1 [SW389158, N-(3-(4-Benzamidophenyl)-1-methyl-1H-pyrazol-5-yl)-3-cyanobenzamide]	–	–	–	–
0.65	0.305	0.31	0.71	–	C#CCOc1ccc(C(=O)c2cccc(C(=O)Nc3cc(-c4ccc(NC(=O)c5ccccc5)cc4)nn3C)c2)cc1 [SW389152, N-(3-(4-Benzamidophenyl)-1-methyl-1H-pyrazol-5-yl)-3-(4-(prop-2-yn-1-yloxy)benzoyl)benzamide]	–	–	–	–
2.34	1.23	0.82	2.4	–	COc1ccccc1C(=O)Nc1cc(-c2ccc(NC(=O)c3ccccc3)cc2)nn1C [SW389006, N-(3-(4-Benzamidophenyl)-1-methyl-1H-pyrazol-5-yl)-2-methoxybenzamide]	–	–	–	–
0.07	0.012	0.03	0.07	–	C#CCOc1cccc(C(=O)Nc2cc(-c3ccc(NC(=O)c4ccccc4Cl)cc3)nn2C)c1 [SW393125, 2-Chloro-N-(4-(1-methyl-5-(3-(prop-2-yn-1-yloxy)benzamido)-1H-pyrazol-3-yl)phenyl)benz-amide]	–	–	–	–
2.2	0.416	0.46	2.97	–	Cn1nc(-c2ccc(NC(=O)c3ccccc3)cc2)cc1NC(=O)c1cccc(C(F)(F)F)c1 [SW389155, N-(3-(4-Benzamidophenyl)-1-methyl-1H-pyrazol-5-yl)-3-(trifluoromethyl)benzamide]	–	–	–	–
0.12	0.01	0.02	0.14	–	Cn1nc(-c2ccc(NC(=O)c3ccccc3[N+](=O)[O-])cc2)cc1NC(=O)c1ccccc1 [SW393143, N-(4-(5-benzamido-1-methyl-1H-pyrazol-3-yl)phenyl)-2-nitrobenzamide]	–	–	–	–
0.53	0.195	0.18	0.77	–	Cn1nc(-c2ccc(NC(=O)c3ccccc3)cc2)cc1NC(=O)c1cccc(C(=O)c2ccccc2)c1 [SW389154, N-(3-(4-Benzamidophenyl)-1-methyl-1H-pyrazol-5-yl)-3-benzoylbenzamide]	–	–	–	–
0.49	0.12	0.3	0.41	–	C#CCOc1ccc(C(=O)c2cccc(C(=O)Nc3cc(-c4ccc(NC(=O)c5ccccc5Cl)cc4)nn3C)c2)cc1 [SW393141, 2-Chloro-N-(4-(1-methyl-5-(3-(4-(prop-2-yn-1-yloxy)benzoyl)benzamido)-1H-pyrazol-3-yl)phenyl)benzamide]	–	–	–	–
